Test results: the supplement of paper PMC10331698
± gives the standard deviation of the averaged measurements.

Tests used:
Experiment in all cases: level (log10 ratio to DMSO vehicle control); higher = higher biomarker level / cell amount than vehicle control
Details in all cases: in DMSO
[1] = compound: O=S(=O)(O)C(F)(F)C(F)(F)C(F)(F)C(F)(F)C(F)(F)C(F)(F)C(F)(F)C(F)(F)F [Perfluorooctanesulfonic acid]
Procedure: (§1)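 BioMAP Diversity Plus panel of 12 human primary cell co-culture systems (3C, 4H, LPS, SAg, BT, BF4T, BE3C, CASM3C, HDF3CGF, KF3CT, MyoF, Mphg). Compounds were added 1 h before stimulation and left for 24 h (MyoF 48 h; BT 72 h for soluble read-outs or 6 d for IgG). Biomarkers were read by ELISA, cytotoxicity by SRB, PBMC viability and proliferation by Alamar Blue. Each well value was divided by the mean of 8 DMSO control wells on the same plate and log10 transformed; duplicate blinded samples were tested at 4 concentrations.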

[2] = compound: C=CC(=O)OCCC(F)(F)C(F)(F)C(F)(F)C(F)(F)F [2-(Perfluorobutyl)ethyl acrylate]
Procedure: as §1

[3] = compound: FC(F)(F)C(F)(F)C(F)(F)C(F)(F)C(F)(F)C(F)(F)C(F)(F)CCI [1-Iodo-1H,1H,2H,2H-perfluorononane]
Procedure: as §1

[4] = compound: O=S(=O)(O)C(F)(F)C(F)(F)C(F)(F)C(F)(F)F [Perfluorobutanesulfonic acid]
Procedure: as §1

[5] = compound: O=C(O)C(F)(F)C(F)(F)C(F)(F)C(F)(F)C(F)(F)C(F)(F)C(F)(F)C(F)(F)Cl [9-Chloro-perfluorononanoic acid]
Procedure: as §1

[6] = compound: O=C(O)CCC(F)(F)C(F)(F)C(F)(F)F [3:3 Fluorotelomer carboxylic acid]
Procedure: as §1

[7] = compound: O=C(O)CCC(F)(F)C(F)(F)C(F)(F)C(F)(F)C(F)(F)F [2H,2H,3H,3H-Perfluorooctanoic acid]
Procedure: as §1

Row | Test System | level (log10) ([1]; 6700 nM) | level (log10) ([1]; 20000 nM) | level (log10) ([1]; 60000 nM) | level (log10) ([2]; 6700 nM) | level (log10) ([2]; 20000 nM) | level (log10) ([2]; 60000 nM) | level (log10) ([3]; 6700 nM) | level (log10) ([3]; 20000 nM) | level (log10) ([4]; 6700 nM) | level (log10) ([4]; 20000 nM) | level (log10) ([4]; 60000 nM) | level (log10) ([5]; 6700 nM) | level (log10) ([5]; 20000 nM) | level (log10) ([6]; 6700 nM) | level (log10) ([6]; 20000 nM) | level (log10) ([6]; 60000 nM) | level (log10) ([7]; 6700 nM) | level (log10) ([7]; 20000 nM) | level (log10) ([7]; 60000 nM)
1 | BF4T:CXCL8/IL-8 | -0.0155 ± 0.00071 | -0.032 ± 0.014 | -0.0185 ± 0.059 | -0.006 ± 0.023 | -0.0105 ± 0.025 | 0.005 ± 0.027 | -0.0015 ± 0.018 | 0.011 ± 0.025 | -0.0205 ± 0.0064 | 0.006 ± 0.0057 | 0.0095 ± 0.013 | 0.112 ± 0.042 | 0.0875 ± 0.015 | -0.0125 ± 0.025 | -0.0155 ± 0.052 | -0.019 ± 0.031 | 0.0095 ± 0.035 | 0.033 ± 0.047 | 0.0645 ± 0.043
2 | BF4T:IL-1alpha | 0.01 ± 0.011 | 0.002 ± 0.0014 | -0.002 ± 0.0099 | -0.0115 ± 0.0078 | -0.0305 ± 0.011 | 0.012 ± 0.038 | -0.011 ± 0.0042 | 0.033 ± 0.031 | 0.0135 ± 0.00071 | 0.0135 ± 0.016 | 0.011 ± 0.016 | 0.0205 ± 0.0035 | -0.023 ± 0.011 | -0.0035 ± 0.019 | -0.009 ± 0.02 | 0.003 | -0.0035 ± 0.0078 | -0.0065 ± 0.016 | 0.017 ± 0.021
3 | BF4T:Keratin 8/18 | -0.009 ± 0.0014 | -0.0015 ± 0.0021 | 0.0135 ± 0.021 | -0.003 ± 0.055 | 0.0035 ± 0.059 | 0.0085 ± 0.036 | -0.016 ± 0.052 | -0.0135 ± 0.0092 | -0.0245 ± 0.028 | -0.0145 ± 0.011 | -0.0045 ± 0.015 | -0.004 ± 0.0057 | -0.0105 ± 0.0035 | 0.004 ± 0.024 | -0.006 ± 0.0042 | 0.0135 ± 0.015 | -0.0015 ± 0.015 | -0.0055 ± 0.0021 | 0.005 ± 0.024
4 | BF4T:MMP-1 | 0.02 ± 0.0014 | 0.029 ± 0.013 | 0.039 ± 0.047 | -0.003 ± 0.044 | -0.003 ± 0.051 | 0.047 ± 0.031 | 0.001 ± 0.035 | 0.016 ± 0.033 | 0.0035 ± 0.0064 | -0.009 ± 0.013 | -0.0045 ± 0.00071 | -0.0115 ± 0.0078 | 0.0245 ± 0.0064 | 0.0005 ± 0.0064 | -0.0065 ± 0.011 | -0.005 ± 0.027 | -0.003 ± 0.0042 | 0.001 ± 0.023 | 0.005 ± 0.021
5 | BF4T:MMP-3 | 0.012 ± 0.035 | 0.0625 ± 0.012 | 0.059 ± 0.089 | -0.008 ± 0.021 | 0.0315 ± 0.052 | 0.0525 ± 0.00071 | 0.0185 ± 0.013 | 0.011 ± 0.0014 | 0.014 ± 0.0014 | 0.001 | 0.042 ± 0.033 | 0.0535 ± 0.023 | 0.118 ± 0.035 | 0.0285 ± 0.042 | 0.0005 ± 0.033 | 0.018 ± 0.023 | -0.0015 ± 0.019 | 0.0025 ± 0.0035 | 0.0235 ± 0.066
6 | BF4T:MMP-9 | 0.02 ± 0.0028 | 0.033 ± 0.0099 | 0.019 ± 0.095 | -0.0015 ± 0.035 | -0.006 ± 0.057 | -0.013 ± 0.058 | 0.007 ± 0.044 | -0.0065 ± 0.028 | -0.004 ± 0.0014 | -0.0065 ± 0.028 | -0.013 ± 0.02 | -0.0395 ± 0.036 | -0.0715 ± 0.019 | 0.0165 ± 0.07 | 0.002 ± 0.065 | 0.0285 ± 0.046 | -0.0095 ± 0.03 | -0.022 ± 0.027 | 0.015 ± 0.018
7 | BF4T:PAI-I | -0.002 ± 0.0085 | -0.0135 ± 0.0021 | -0.02 ± 0.052 | -0.006 ± 0.025 | 0.007 ± 0.03 | -0.0255 ± 0.025 | -0.0005 ± 0.013 | -0.013 ± 0.011 | -0.0075 ± 0.0092 | -0.005 ± 0.0042 | 0.0015 ± 0.005 | -0.027 ± 0.0042 | -0.052 ± 0.0028 | 0.0025 ± 0.021 | -0.011 ± 0.018 | 0.006 ± 0.0014 | -0.005 ± 0.014 | -0.0155 ± 0.016 | -0.024 ± 0.014
8 | BF4T:SRB | -0.0095 ± 0.0092 | -0.0115 ± 0.0021 | -0.0015 ± 0.026 | -0.003 ± 0.0014 | -0.005 | -0.0085 ± 0.0021 | -0.001 ± 0.0042 | 0.001 ± 0.0042 | -0.006 ± 0.0099 | -0.0085 ± 0.005 | -0.009 ± 0.0028 | -0.013 ± 0.0071 | -0.0555 ± 0.0064 | -0.008 ± 0.0057 | -0.0105 ± 0.0035 | 0 ± 0.0014 | -0.0005 ± 0.0078 | -0.003 ± 0.013 | -0.005 ± 0.0028
9 | BF4T:tPA | 0.0135 ± 0.013 | -0.0175 ± 0.00071 | 0.0195 ± 0.018 | 0.0005 ± 0.023 | -0.035 ± 0.023 | -0.0325 ± 0.00071 | 0.0185 ± 0.0064 | -0.0135 ± 0.0064 | -0.0115 ± 0.021 | 0.0025 ± 0.0092 | 0.0115 ± 0.018 | -0.075 ± 0.0099 | -0.098 ± 0.0099 | 0.004 ± 0.031 | -0.0005 ± 0.015 | 0.015 ± 0.0099 | -0.014 ± 0.0014 | -0.023 ± 0.0085 | -0.0535 ± 0.042
10 | BF4T:uPA | 0.0005 ± 0.016 | 0.0175 ± 0.00071 | 0.0375 ± 0.023 | -0.008 ± 0.028 | -0.009 ± 0.02 | -0.022 ± 0.03 | -0.011 ± 0.035 | -0.012 ± 0.033 | -0.026 ± 0.02 | 0.006 ± 0.0014 | -0.014 ± 0.027 | -0.0045 ± 0.012 | -0.01 ± 0.0071 | 0.0025 ± 0.016 | 0 ± 0.011 | -0.01 ± 0.031 | 0.0015 ± 0.015 | -0.003 ± 0.03 | -0.008 ± 0.013
11 | BT:B cell Proliferation | 0.0245 ± 0.0092 | 0.0375 ± 0.0092 | 0.0635 ± 0.035 | -0.018 ± 0.0014 | -0.0275 ± 0.011 | -0.264 ± 0.063 | 0.0135 ± 0.029 | 0.0045 ± 0.015 | -0.0025 ± 0.016 | 0.0085 ± 0.016 | 0.038 ± 0.0014 | 0.04 ± 0.038 | 0.037 ± 0.017 | -0.018 ± 0.0085 | -0.0115 ± 0.042 | -0.011 ± 0.02 | 0.0515 ± 0.028 | 0.078 ± 0.059 | 0.05 ± 0.05
12 | BT:PBMC Cytotoxicity | 0.0295 ± 0.0064 | 0.038 ± 0.016 | 0.078 ± 0.047 | -0.028 ± 0.0014 | -0.073 ± 0.018 | -0.251 ± 0.057 | 0.0115 ± 0.0035 | 0.0115 ± 0.011 | 0.03 ± 0.044 | 0.039 ± 0.027 | 0.057 ± 0.0057 | 0.015 ± 0.028 | 0.0355 ± 0.015 | 0.0035 ± 0.0064 | 0.012 ± 0.017 | 0.018 ± 0.014 | 0.03 ± 0.021 | 0.0185 ± 0.033 | 0.019 ± 0.017
13 | BT:Secreted IgG | -0.0005 ± 0.0078 | 0.0025 ± 0.021 | -0.0315 ± 0.016 | 0.025 ± 0.017 | -0.053 ± 0.054 | -0.359 ± 0.049 | -0.0075 ± 0.06 | 0.0115 ± 0.074 | 0.0005 ± 0.00071 | -0.0055 ± 0.023 | -0.016 ± 0.052 | 0.0065 ± 0.06 | 0.0175 ± 0.011 | -0.011 ± 0.024 | -0.0295 ± 0.012 | -0.0155 ± 0.005 | 0.016 ± 0.0028 | -0.033 ± 0.098 | -0.212 ± 0.17
